Where a name gives a salt, the structure may show the parent alone.
Target: T1, estrogen receptor (Homo sapiens, UniProt P03372)
T1 construct: since the MCF-7 cells express estrogen receptors; endogenous in cells; host or cells: MCF-7 human breast carcinoma cells infected with adenovirus 5-ERE-tk-luciferase (reporter only)
T1 sequence (P03372 1-595): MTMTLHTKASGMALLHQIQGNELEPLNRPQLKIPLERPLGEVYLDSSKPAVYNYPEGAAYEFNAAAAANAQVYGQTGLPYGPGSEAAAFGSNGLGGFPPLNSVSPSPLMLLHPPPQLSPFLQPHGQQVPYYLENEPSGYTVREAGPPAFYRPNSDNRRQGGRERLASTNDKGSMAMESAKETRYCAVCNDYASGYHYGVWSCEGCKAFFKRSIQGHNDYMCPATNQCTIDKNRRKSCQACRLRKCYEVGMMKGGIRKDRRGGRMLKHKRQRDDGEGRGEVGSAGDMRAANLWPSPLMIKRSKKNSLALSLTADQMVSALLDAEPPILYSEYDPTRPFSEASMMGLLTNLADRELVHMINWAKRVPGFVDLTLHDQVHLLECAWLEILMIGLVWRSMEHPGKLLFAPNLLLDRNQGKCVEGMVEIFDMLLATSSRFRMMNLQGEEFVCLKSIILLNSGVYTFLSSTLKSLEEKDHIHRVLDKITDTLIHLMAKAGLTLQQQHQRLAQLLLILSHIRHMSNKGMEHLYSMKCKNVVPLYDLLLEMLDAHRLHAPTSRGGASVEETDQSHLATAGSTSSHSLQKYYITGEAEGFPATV
Test: MCF-7 ERE-tk-luciferase test procedure, antagonist mode
Format: cell-based
Details: co-dosed with 10 pM 17β-estradiol, MCF-7 cells infected with adenovirus 5-ERE-tk-luciferase, treated 24 h
Excerpt: Estrogen antagonist activity was shown for representative compounds of this invention in a standard pharmacological test procedure using MCF-7 cells transfected with an estrogen receptor. When administered orally, the compounds of this invention act at least partially as prodrugs for the corresponding hydroxylated compounds disclosed in EP 802183. Accordingly, the compounds of this invention are tissue selective estrogens, meaning that in certain tissue containing estrogen receptors, the compounds will act as estrogen agonists, and in other tissue containing estrogen receptors, the compounds will act as antagonists. […]
After treatment the cells were lysed on a shaker for 15 min with 25 uL/well of 1× cell culture lysis reagent (Promega Corporation). The cell lysates (20 uL) were transferred to a 96 well luminometer plate, and luciferase activity was measured in a MicroLumat LB 96 P luminometer (EG and G Bethold) using 100 uL/well of luciferase substrate (Promega Corporation). […] Following the injection of the substrate, luciferase activity was measured for 10 seconds after a 1 second delay. The data were transferred from the luminometer to a Macintosh personal computer and analyzed using the JMP software (SAS institute); this program subtracts the background reading from the luciferase measurement for each well and then determine the mean and standard deviation of each treatment. […]

Row | SMILES | IC50 [nM]
1 | Cc1c(-c2ccc(O)cc2)n(Cc2ccc(OCCN3CCCCC3)cc2)c2ccc(O[C@@H]3O[C@H](C(=O)O)[C@@H](O)[C@H](O)[C@H]3O)cc12 [Compound 29, 1-[4-(2-Piperidin-1-yl-ethoxy)-benzyl]-2-(4-hydroxy-phenyl)-3-methyl-1H-indol-5-ol 5-O-glucuronide triethylammonium salt] | 230
2 | Cc1c(-c2ccc(O[C@@H]3O[C@H](C(=O)O)[C@@H](O)[C@H](O)[C@H]3O)cc2)n(Cc2ccc(OCCN3CCCCC3)cc2)c2ccc(O)cc12 [Compound 37, 2-(4-Hydroxy-phenyl)-3-methyl-1-[4-(2-piperidin-1-yl-ethoxy)-benzyl]-1H-indol-5-ol 4-O-Glucuronide Triethyl Ammonium Salt] | 1200
